Measurements published in patent US6146554A, “Photochromic naphtopyrane colorants, method for the production and use thereof, photochromic object” (Optische Werke G. Rodenstock, priority 1997, dated 2000).
Values belong to the molecule of their own block, whether it stands above or below them.

Key:
Format in all cases: physicochemical
[1] = Absorption maximums of the closed and open forms and colour (Table 1, FIGS. 4 and 5); settings: for max closed form (shoulder) / max closed form: closed (not excited) form; for max closed form: Transhade-150 test specimen, 500 ppm; for colour / max open form: open (excited) form
Text: For illustration of the aforedescribed bathochromic shift of the inventive compounds, compared against prior art, comparative tests have been carried out.
The first three compounds in Table 1--V1, V2 and Example 3--correspond to prior art (cf. WO 96/14596); the production of V1 and V2 is described there in details.
The production of the test specimens and the measuring methodology are described in details i the Examples.
FIGS. 4 and 5 show the absorption of the closed form or the absorption of the open form, compared against the absorption of the prior art compounds V1 and V2, expressed by plotting the extinction versus the wavelength. For a better recognition of the bathochromic shift a normalisation of the absorption intensity to roughly the same value has been made in the open form.
Absorption maximums of the open and closed forms, starting out
(§1) 500 ppm of the respective photochromic dye are dissolved in the employed monomer (TRANSHADE-150 from the company of Tokuyama; index of refraction 1.52) at room temperature while stirring. After the addition of an initiator of the alkyl peroxy-ester type (1.5% by weight) degassing is performed twice and subsequently the polymerisation is carried out in correspondence with the temperature programme recommended by the Tokuyama company. The glass casting moulds are coloured in black so that the entirety of the photochromic dyes may be integrated into the matrix in a non-excited state. After completion of the polymerisation process the test specimens are additionally tempered at 100° C. for 2 hours.

[2] = Brightening rate and brightening kinetics in the polymer Transhade-150; settings: for Δ(10 min, 23° C.) relative brightening: within 10 min at 23° C.
Experimental: For a further illustration of the foregoing explanations comparative tests have been carried out again on the inventive compounds and on known compounds. The compounds used are derived from the compound of the following general formula: [drawing 5]
The brightening rate and the brightening kinetics were measured for differently substituted systems in the polymer Transhade-150 of the company of Tokuyama at different temperatures. The results obtained are summarised in the following, with the following terms being used:
Δ=relative brightening within 10 minutes at 23° C.
=100% (.tau.10 min-.tau.s)/(.tau.0-.tau.s)
.tau.s is the transmission achieved after 15 min of obscuration
.tau.0 is the transmission in the fully brightened condition
.tau.10 min is the transmission after 10 min brightening in the dark
T1/2 =time elapsing up to a brightening level corresponding to half the darkening level (half-period)
The brightening kinetics of differently substituted systems was determined, with R1, R2 and R3 representing either the methoxy group or hydrogen; the measurements were performed at 23° C. and 40° C.
Production of the test specimens:
as §1
Plotting of the kinetics graphs:
For the determination of the brightening rates the test specimens so produced were measured in a common kinetics test bench (irradiation with 50 klux in compliance with EN 1836, item 6.1.3.1.1). The exposure time was 15 minutes in each case, brightening takes place in the dark. During exposure and brightening the transmission graph--evaluated by the sensitivity to brightness of the human eye, V λ--is recorded. The glass temperature is controlled via a cuvette designed for being controlled by means of a thermostat.

[3] = Photochromy observed in solution and in the glass
Experimental: (ix) 1 g of the above reaction product is dissolved in 50 ml of absolute THF while stirring and cooled in an ice bath. Lithium aluminium hydride is added in small portions until the colour of the reaction solution does no longer brighten up. Stirring is then continued for another 10 min. and the solution is poured into water, acidified with conc. hydrochloric acid until the phases are clear whereupon the organic phase is isolated. After extraction with water, drying over sodium sulphate and removal of the solvent by rotation a brownish viscous residue remains which crystallises when methanol is added. The suspension is stirred at room temperature for some minutes more and then the precipitate is exhausted. The slightly brownish solid (0.8 g) was identified as 6-methoxy-3-(4-methoxy phenyl)-3-phenyl-13-hydroxy-benz[p]indeno[2,1-f]naphtho[1,2-b]pyrane by means of the NMR spectrum.

[4] = Table 3: R1 = OCH3, R2 = R3 = H
[5] = Table 4: R1 = R3 = OCH3, R2 = H

max closed form (shoulder) [1]: 375 nm | max closed form [1]: 360 nm | colour [1]: blue | max open form [1]: 575 nm
SMILES: COc1ccc(C2(c3ccccc3)C=Cc3c4c(c5ccc(OC)cc5c3O2)-c2ccccc2C4O)cc1 (stereo not shown) [Example 3, 6-methoxy-3-(4-methoxyphenyl)-3-phenyl-13-hydroxy-indeno[2,1-f]-naphtho[1,2-b]pyrane]

T1/2 (40° C.) [2, 4]: 3.4 min | Δ(10 min, 23° C.) relative brightening [2, 4]: 38%
SMILES: COc1ccc(C2(c3ccccc3)C=Cc3c4c(c5ccc(OC)cc5c3O2)-c2ccccc2C4(O)c2sccc2C)cc1 (stereo not shown) [Example 9, 6-methoxy-3-(4-methoxyphenyl)-3-phenyl-13-(3-methyl-2-thienyl)-13-hydroxy-indeno[2,1-f]naphtho[1,2-b]pyrane]

T1/2 (40° C.) [2, 5]: 2.5 min | Δ(10 min, 23° C.) relative brightening [2, 5]: 44%
SMILES: COc1ccc(C2(c3ccc(OC)cc3)C=Cc3c4c(c5ccc(OC)cc5c3O2)-c2ccccc2C4(O)c2cccc3ccccc23)cc1 (stereo not shown) [Example V4]

T1/2 (40° C.) [2, 4]: 4.0 min | Δ(10 min, 23° C.) relative brightening [2, 4]: 36%
SMILES: COc1ccc(C2(c3ccccc3)C=Cc3c4c(c5ccc(OC)cc5c3O2)-c2ccccc2C4(O)c2cc(C)ccc2C)cc1 (stereo not shown) [Example 8, 6-methoxy-3-(4-methoxyphenyl)-3-phenyl-13-(2,5-dimethylphenyl)-13-hydroxy-indeno[2,1-f]naphtho[1,2-b]pyrane]

max closed form [1]: 385 nm | colour [1]: green | max open form [1]: 600 nm | photochromy colour [3]: green photochromy
SMILES: COc1ccc(C2(c3ccccc3)C=Cc3c4c(c5ccc(OC)cc5c3O2)-c2ccc3ccccc3c2C4O)cc1 (stereo not shown) [Example 1, 6-methoxy-3-(4-methoxyphenyl)-3-phenyl-13-hydroxy-benz[p]indeno[2,1-f]naphtho[1,2-b]pyrane]

T1/2 (40° C.) [2, 4]: 5.0 min | Δ(10 min, 23° C.) relative brightening [2, 4]: 29%
SMILES: COc1ccc(C2(c3ccccc3)C=Cc3c4c(c5ccc(OC)cc5c3O2)-c2ccccc2C4(O)c2cccc3ccccc23)cc1 (stereo not shown) [Example 6, 6-methoxy-3-(4-methoxyphenyl)-3-phenyl-13-(1-naphthyl)-13-hydroxy-indeno [2,1-f]-naphtho[1,2-b]pyrane]

max closed form (shoulder) [1]: 375 nm | max closed form [1]: 350 nm | colour [1]: blue-violet | max open form [1]: 570 nm
SMILES: COc1ccc(C2(c3ccc(OC)cc3)C=Cc3c4c(c5ccc(C)cc5c3O2)-c2ccc(C)cc2C4O)cc1 (stereo not shown) [Example V2]

T1/2 (40° C.) [2, 4]: 4.2 min | Δ(10 min, 23° C.) relative brightening [2, 4]: 34%
SMILES: COc1ccc(C2(c3ccccc3)C=Cc3c4c(c5ccc(OC)cc5c3O2)-c2ccccc2C4(O)c2ccccc2C)cc1 (stereo not shown) [Example 7]

T1/2 (40° C.) [2, 4]: 7.0 min | Δ(10 min, 23° C.) relative brightening [2, 4]: 22%
SMILES: COc1ccc(C2(c3ccccc3)C=Cc3c4c(c5ccc(OC)cc5c3O2)-c2ccccc2C4(O)c2ccccc2)cc1 (stereo not shown) [Example 5, 13-hydroxy-6-methoxy-3-(4-methoxyphenyl)-3,13-diphenyl indeno[2,1-f]-naphtho[1,2-b]pyrane]

T1/2 (40° C.) [2, 4]: 7.0 min | Δ(10 min, 23° C.) relative brightening [2, 4]: 25%
SMILES: CCC1(O)c2ccccc2-c2c1c1c(c3cc(OC)ccc23)OC(c2ccccc2)(c2ccc(OC)cc2)C=C1 (stereo not shown) [Example 4, 6-methoxy-3-(4-methoxyphenyl)-3-phenyl-13-ethyl-13-hydroxy-indeno[2,1-f]naphtho[1,2-b]pyrane]

T1/2 (40° C.) [2, 5]: 2.5 min | Δ(10 min, 23° C.) relative brightening [2, 5]: 43%
SMILES: COc1ccc(C2(c3ccc(OC)cc3)C=Cc3c4c(c5ccc(OC)cc5c3O2)-c2ccccc2C4(O)c2ccccc2)cc1 (stereo not shown) [Example V3]
